Reference: PMC8636514, “Therapeutic potential of TRPM8 antagonists in prostate cancer” (Scientific Reports, 2021)

Tests used:
[1] = target: T1, AR/TRPM8 complex (Homo sapiens, UniProt Q7Z2W7); experiment: Co-IP of AR with TRPM8 in LNCaP cells; format: cell-based; conditions: for androgen-induced Co-IP of AR with TRPM8: 10 nM R1881, 10 min, compound 1 μM; for AR in IP anti-AR, Average (n=3) / TRPM8 in IP anti-AR, Average (n=3): Fig 6d lower panel; for AR, Average (n=3) / TRPM8, Average (n=3): Fig 6e, R1881 alone
T1 construct: We here dissected an endogenous non-genomic mechanism of the TRPM8 channel regulation by androgens in PC cells; endogenous in cells; host or cells: LNCaP cells
T1 sequence (Q7Z2W7 whole entry, one chain of several): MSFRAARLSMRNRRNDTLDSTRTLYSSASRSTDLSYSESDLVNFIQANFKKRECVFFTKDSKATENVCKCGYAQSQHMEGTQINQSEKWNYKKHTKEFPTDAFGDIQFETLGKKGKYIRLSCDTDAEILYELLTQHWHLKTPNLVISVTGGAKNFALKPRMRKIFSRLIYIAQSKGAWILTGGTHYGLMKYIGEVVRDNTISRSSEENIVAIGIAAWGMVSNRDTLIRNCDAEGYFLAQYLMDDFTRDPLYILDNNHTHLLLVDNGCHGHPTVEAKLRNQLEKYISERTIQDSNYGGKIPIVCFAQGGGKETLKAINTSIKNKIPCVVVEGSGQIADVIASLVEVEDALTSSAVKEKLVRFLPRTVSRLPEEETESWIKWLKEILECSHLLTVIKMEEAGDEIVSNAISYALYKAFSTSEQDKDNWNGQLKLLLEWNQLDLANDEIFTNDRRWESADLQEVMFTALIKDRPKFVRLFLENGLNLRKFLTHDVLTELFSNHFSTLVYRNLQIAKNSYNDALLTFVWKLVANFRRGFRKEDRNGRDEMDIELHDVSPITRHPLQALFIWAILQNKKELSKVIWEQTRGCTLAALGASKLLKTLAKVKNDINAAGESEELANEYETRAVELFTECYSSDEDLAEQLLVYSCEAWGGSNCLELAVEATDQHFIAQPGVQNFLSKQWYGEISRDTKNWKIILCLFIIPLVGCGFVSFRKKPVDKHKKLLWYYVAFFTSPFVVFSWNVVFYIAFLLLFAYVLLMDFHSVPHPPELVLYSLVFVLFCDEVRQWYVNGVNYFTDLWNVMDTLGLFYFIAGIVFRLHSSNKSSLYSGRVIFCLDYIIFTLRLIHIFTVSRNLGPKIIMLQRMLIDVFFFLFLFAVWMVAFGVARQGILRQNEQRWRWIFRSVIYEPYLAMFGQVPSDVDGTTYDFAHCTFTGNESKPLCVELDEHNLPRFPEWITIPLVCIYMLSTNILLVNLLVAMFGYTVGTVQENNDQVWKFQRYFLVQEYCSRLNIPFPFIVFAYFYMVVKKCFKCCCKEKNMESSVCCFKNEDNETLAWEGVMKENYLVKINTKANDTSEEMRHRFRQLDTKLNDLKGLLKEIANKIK
Text: (§1) All performed as reported. The mouse monoclonal anti-AR (441; Santa Cruz) antibody was used in Co-Ip or WB approaches. TRPM8 was detected using the rabbit polyclonal anti-TRPM8 (NBP1-97311; Novus Biological). […] The rabbit polyclonal anti-ERK (C-14; Santa Cruz), antibody was used to detect total ERK. FAK and P-Tyr397 FAK were detected using the mouse monoclonal anti-FAK (Clone 77/610077 BD Transduction Laboratories) or anti P-Tyr397 FAK (Clone 14/611722; BD Transduction Laboratories) antibodies, respectively. P-Tyr118 paxillin and total paxillin were detected using the rabbit polyclonal anti-P-Y118 (#2541, Cell Signaling) or the mouse monoclonal anti-paxillin (clone 349; BD Biosciences) antibodies, respectively. […] P-Tyr 416 Src and Src were detected using the rabbit monoclonal anti P-Tyr 416 Src (#6943; Cell Signaling) or the mouse monoclonal anti Src (Calbiochem) antibodies, respectively. ERα and ERβ were detected using the rabbit polyclonal anti-ERα (543; Santa Cruz) or anti-ERβ (Upstate Biotechnology, U.S.A.) antibodies. Cyclin D1, p27 and Cdk4 were stained using the mouse monoclonal anti-cyclin D1 (clone AM29; from Zymed Laboratories Inc.), the rabbit polyclonal anti-p27 (C-19; Santa Cruz) or anti Cdk-4 (c-22; Santa Cruz) antibodies, respectively. The mouse monoclonal anti-tubulin (Sigma-Aldrich) antibody was used to detect tubulin. The ECL system (GE Healthcare) was employed to reveal immune-reactive proteins. Densitometric analysis of WB was performed by using Image J Software (https://imagej.nih.gov/ij).

[2] = tested on: p27; experiment: Western blot of p27 in LNCaP cells; format: cell-based, human; conditions: for P27, fold increase over the basal level: 15 h; for androgen-induced p27 down-regulation: R1881, compound 1 μM
Text: as §1

[3] = tested on: Cdk4; experiment: Western blot of Cdk4 in LNCaP cells; format: cell-based, human; conditions: 15 h
Text: as §1

[4] = tested on: AR; experiment: Western blot of AR in LNCaP lysate proteins; format: cell-based, human; conditions: for AR in lysates, Average (n=3): Fig 6d upper panel
Text: as §1

[5] = tested on: cyclin D1; experiment: Western blot of cyclin D1 in LNCaP cells; format: cell-based, human; conditions: for Cyclin D1, fold increase over the basal level: 15 h; for androgen-induced up-regulation of cyclin D1: R1881, compound 1 μM
Text: as §1

[6] = tested on: C4-2B cells; experiment: DNA synthesis (BrdU incorporation) in C4-2B cells; format: cell-based, human
Description: (§2) Cells on coverslips were pulsed in vivo with BrdU (Sigma-Aldrich; at 100 μM, final concentration) and left unchallenged or challenged with 10 nM R1881 for 18 h, in the absence or presence of the indicated compounds. Cells were fixed, permeabilized, washed and the BrdU incorporation was analysed as reported. Nuclei were stained with Hoechst and cells on coverslips were scored by IF microscopy, using a DMLB Leica (Leica) fluorescent microscope, equipped with HCX PL Apo 63 × oil objective. Different fields from each coverslip were analyzed and BrdU incorporation was calculated by the formula: percentage of BrdU-positive cells = (No. of BrdU-positive cells/No. of total cells) × 100. Data in the graphs derive from at least 1000 scored cells for each coverslip. Representative images were captured using DC480 camera (Leica) and acquired using Leica Suite software. They are representative of three different experiments.

[7] = tested on: LNCaP cells; experiment: DNA synthesis (BrdU incorporation) in LNCaP cells; format: cell-based, human; conditions: for effect on DNA synthesis stimulated by R1881: 1 nM R1881, compound 1 μM; for inhibitory effect on R1881-stimulated DNA synthesis, compared with 3 and 5: 10 nM R1881, compound 1 μM
Description: as §2, with “Cells on coverslips were pulsed in vivo with BrdU (Sigma-Aldrich; at 100 μM, final concentration) and left unchallenged or challenged with 10 nM R1881 for 18 h, in the absence or presence of the indicated compounds.” left out

[8] = tested on: TRPM8; experiment: Western blot of TRPM8 in LNCaP lysate proteins; format: cell-based, human; conditions: for TRPM8 in lysates, Average (n=3): Fig 6d upper panel
Text: as §1

[9] = tested on: LNCaP cell spheroids; experiment: 3D culture in ECM, LNCaP cell spheroid size; format: cell-based, human; conditions: for androgen-induced increase of spheroid size / spheroid size in the absence of hormone: 15 days; for spheroid size in the absence of hormone: compound 1 μM alone
Description: LNCaP cell spheroids were generated as reported. Briefly, 2 × 10^4 LNCaP cells were mixed with 200 μL of phenol-red free growth factor-reduced Matrigel and 50 μL of organoid plating medium in each well. The mixture was pipetted in 24-well plate and allowed to solidify for 45 min at 37 °C, before the addition of 400 μL organoid plating-medium, which was made using phenol red-free DMEM/F12 medium, containing 7% CSS, penicillin (100 U/mL), streptomycin (100 U/mL), diluted GlutaMAX 100X (Gibco), 10 mM Hepes, B27 supplement (50 × stock solution; Thermofisher, Waltham, Massachusetts, USA), […] nicotinamide (Sigma-Aldrich), […] N-acetylcysteine (Sigma-Aldrich) and 10 μM Y-27632 (Millipore, Burlington, MA, USA). After 3 days, the organoid-plating medium was replaced with a similar medium in the absence of N-acetylcysteine and Y-27632. At the 3rd day, spheroids/organoids were untreated or treated with the indicated compounds. The medium was changed every 3 days and fields were analyzed by phase-contrast microscopy.
In wound scratch assay, different fields were analysed using DMIRB inverted microscope (Leica) equipped with N-Plan 10 × objective (Leica), as reported. LNCaP organoids were analysed using the same microscope equipped with C-Plan 40 × or HCX PL Fluotar 63 × objectives (Leica). Images were captured using a DFC 450C camera (Leica) and acquired using the Application Suite Software (Leica). They are representative of three different experiments. The relative organoid size was calculated using the same software and expressed as a fold increase over the basal organoid size (measured at 3th day). The wound gap was calculated using Image J Software and expressed as % of the decrease in the wound area. Migrating or invading cells from at least 30 fields/each membrane were scored, using a DMLB (Leica) fluorescent microscope, equipped with HCPL Fluotar 20 × objective.

[10] = 1 nM R1881 + compound 1 μM, Fig 2e-f
[11] = 10 nM R1881 + compound 1 μM, Fig 2d
[12] = cycling cells, 18 h, 100 nM and 1 μM
[13] = fourth group of list (probably IP anti-AR)

COC(=O)[C@H](Cc1c[nH]c2ccccc12)N(Cc1ccccc1)Cc1ccccc1 [Compound 6]
androgen-induced Co-IP of AR with TRPM8 [1]: abolished this association | AR in IP anti-AR, Average (n=3) ([1]; 10 nM R1881 + compound 1 μM): 1 | TRPM8 in IP anti-AR, Average (n=3) ([1]; 10 nM R1881 + compound 1 μM): 0,6 | AR in IP anti-AR, Average (n=3) ([1]; compound 1 μM alone): 1,1 | TRPM8 in IP anti-AR, Average (n=3) ([1]; compound 1 μM alone): 0,3 | AR/TRPM8 complex assembly in the absence of hormone ([1]; compound 1 μM alone): did not affect | P27, fold increase over the basal level [2, 10]: 1 fold | P27, fold increase over the basal level [2, 11]: 1,1 fold | androgen-induced p27 down-regulation [2]: significantly impair | Cdk4, fold increase over the basal level [3, 10]: 1,1 fold | Cdk4, fold increase over the basal level [3, 11]: 1,1 fold | AR in lysates, Average (n=3) ([4]; 10 nM R1881 + compound 1 μM): 1,1 | AR in lysates, Average (n=3) ([4]; compound 1 μM alone): 0,9 | Cyclin D1, fold increase over the basal level [5, 10]: 0,9 fold | Cyclin D1, fold increase over the basal level [5, 11]: 1,2 fold | androgen-induced up-regulation of cyclin D1 [5]: significantly impair | BrdU incorporation [6, 12]: inhibited | effect on DNA synthesis stimulated by R1881 [7]: reverted | inhibitory effect on R1881-stimulated DNA synthesis, compared with 3 and 5 [7]: stronger | TRPM8 in lysates, Average (n=3) ([8]; 10 nM R1881 + compound 1 μM): 1 | TRPM8 in lysates, Average (n=3) ([8]; compound 1 μM alone): 1,1 | androgen-induced increase of spheroid size ([9]; 1 nM R1881, compound 1 µM): reverted | androgen-induced increase of spheroid size ([9]; 10 nM R1881, compound 1 μM): abolished | spheroid size in the absence of hormone [9]: leaving unaffected

c1ccc(COc2ccc3[nH]cc(CCNCc4ccc(Oc5ccccc5)cc4)c3c2)cc1 [Compound 4]
androgen-induced Co-IP of AR with TRPM8 [1]: abolished this association | AR in IP anti-AR, Average (n=3) ([1]; 10 nM R1881 + compound 1 μM): 1,1 | TRPM8 in IP anti-AR, Average (n=3) ([1]; 10 nM R1881 + compound 1 μM): 0,7 | AR in IP anti-AR, Average (n=3) ([1]; compound 1 μM alone): 1,1 | TRPM8 in IP anti-AR, Average (n=3) ([1]; compound 1 μM alone): 0,3 | AR/TRPM8 complex assembly in the absence of hormone ([1]; compound 1 μM alone): did not affect | P27, fold increase over the basal level [2, 10]: 1,1 fold | androgen-induced p27 down-regulation [2]: significantly impair | Cdk4, fold increase over the basal level [3, 10]: 1 fold | AR in lysates, Average (n=3) ([4]; 10 nM R1881 + compound 1 μM): 0,9 | AR in lysates, Average (n=3) ([4]; compound 1 μM alone): 0,9 | Cyclin D1, fold increase over the basal level [5, 10]: 0,9 fold | androgen-induced up-regulation of cyclin D1 [5]: significantly impair | BrdU incorporation [6, 12]: inhibited | effect on DNA synthesis stimulated by R1881 [7]: reverted | inhibitory effect on R1881-stimulated DNA synthesis, compared with 3 and 5 [7]: stronger | TRPM8 in lysates, Average (n=3) ([8]; 10 nM R1881 + compound 1 μM): 1 | TRPM8 in lysates, Average (n=3) ([8]; compound 1 μM alone): 1 | androgen-induced increase of spheroid size ([9]; 1 nM R1881, compound 1 µM): reverted | androgen-induced increase of spheroid size ([9]; 10 nM R1881, compound 1 μM): abolished | spheroid size in the absence of hormone [9]: leaving unaffected

C[C@]1(O)CC[C@H]2[C@@H]3CCC4=CC(=O)CCC4=C3C=C[C@@]21C [Compound R1881, reference compound]
AR, Average (n=3) [1, 13]: 1 | TRPM8, Average (n=3) [1, 13]: 3,1 | AR, Average (n=3) ([1]; second group of list): 0,1 | TRPM8, Average (n=3) ([1]; second group of list): 0,1 | AR, Average (n=3) ([1]; third group of list): 1 | TRPM8, Average (n=3) ([1]; third group of list): 0 | AR in IP anti-AR, Average (n=3) ([1]; 10 nM R1881 alone, 10 min): 1 | TRPM8 in IP anti-AR, Average (n=3) ([1]; 10 nM R1881 alone, 10 min): 2,9 | P27, fold increase over the basal level ([2]; 1 nM R1881 alone, Fig 2e): 0,6 fold | P27, fold increase over the basal level ([2]; 1 nM R1881 alone, Fig 2f): 0,6 fold | P27, fold increase over the basal level ([2]; 10 nM R1881 alone, Fig 2d): 0,4 fold | Cdk4, fold increase over the basal level ([3]; 1 nM R1881 alone, Fig 2e): 1 fold | Cdk4, fold increase over the basal level ([3]; 1 nM R1881 alone, Fig 2f): 1,1 fold | Cdk4, fold increase over the basal level ([3]; 10 nM R1881 alone, Fig 2d): 1 fold | AR, Average (n=3) ([4]; Fig 6e, first group of list (section not labelled, probably lysates), R1881 alone): 1 | AR in lysates, Average (n=3) ([4]; 10 nM R1881 alone, 10 min): 1 | Cyclin D1, fold increase over the basal level ([5]; 1 nM R1881 alone, Fig 2e): 1,5 fold | Cyclin D1, fold increase over the basal level ([5]; 1 nM R1881 alone, Fig 2f): 1,7 fold | Cyclin D1, fold increase over the basal level ([5]; 10 nM R1881 alone, Fig 2d): 2,7 fold | BrdU incorporation ([6]; 10 nM R1881 (not shown)): did not observe any effect | increase of the DNA synthesis ([7]; 1 nM R1881 alone): ~2 folds | increase in BrdU incorporation ([7]; 10 nM R1881 alone): ~3,5 folds | amount of TRPM8 (Western blot) ([8]; 10 nM R1881, 24 h, quiescent LNCaP cells): very weakly increased | TRPM8, Average (n=3) ([8]; Fig 6e, R1881 alone): 1 | TRPM8 in lysates, Average (n=3) ([8]; 10 nM R1881 alone, 10 min): 0,9 | response on spheroid size ([9]; 1 nM R1881 alone): only a weak response
